Experimental findings from ChEMBL document CHEMBL3621198, “Probing cytochrome P450-mediated activation with a truncated azinomycin analogue” (Medchemcomm, 2015) are described below.

Series [1] deals with CHO. The series can be described thus: Cytotoxicity against wild type CHO cells assessed as growth inhibition after 96 hrs by MTT assay. Format: functional, cell-based. Conditions: Cricetulus griseus.
In series [2] the test system is CHO. Briefly: Cytotoxicity against CHO cells transfected with CYP1A1 assessed as growth inhibition after 96 hrs by MTT assay. Format: functional, cell-based. Particulars: Cricetulus griseus.
Series [3] deals with T1, Cytochrome P450 1A1 (Homo sapiens, UniProt P04798).
T1 sequence (P04798 whole entry): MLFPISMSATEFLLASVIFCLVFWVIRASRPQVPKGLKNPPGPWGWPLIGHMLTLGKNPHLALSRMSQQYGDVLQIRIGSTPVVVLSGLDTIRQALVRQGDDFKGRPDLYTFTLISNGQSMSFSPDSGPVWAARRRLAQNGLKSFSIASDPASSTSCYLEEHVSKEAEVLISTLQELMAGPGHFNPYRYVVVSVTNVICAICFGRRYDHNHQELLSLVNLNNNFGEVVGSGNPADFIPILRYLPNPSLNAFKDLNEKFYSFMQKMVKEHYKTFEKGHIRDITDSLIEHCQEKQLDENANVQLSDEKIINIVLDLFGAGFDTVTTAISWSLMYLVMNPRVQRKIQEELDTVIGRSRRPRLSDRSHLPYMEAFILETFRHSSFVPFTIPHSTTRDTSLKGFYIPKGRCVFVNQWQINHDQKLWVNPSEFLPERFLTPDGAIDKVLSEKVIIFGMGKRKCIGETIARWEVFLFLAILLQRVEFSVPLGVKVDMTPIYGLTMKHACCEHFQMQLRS
Briefly: Drug level in presence of CYP1A1 (unknown origin) expressed in bactosomes treated with 1-amino-3-methyl-1-oxobut-3-en-2-yl 3-methoxy-5-methyl-1-naphthoate measured for 180 mins by LC/MS/MS analysis. Conditions: recombinant enzyme, 3 h. It is filed as ADME.

For series [4], the target named is T2, Cytochrome P450 1B1 (Homo sapiens, UniProt Q16678).
T2 sequence (Q16678 whole entry): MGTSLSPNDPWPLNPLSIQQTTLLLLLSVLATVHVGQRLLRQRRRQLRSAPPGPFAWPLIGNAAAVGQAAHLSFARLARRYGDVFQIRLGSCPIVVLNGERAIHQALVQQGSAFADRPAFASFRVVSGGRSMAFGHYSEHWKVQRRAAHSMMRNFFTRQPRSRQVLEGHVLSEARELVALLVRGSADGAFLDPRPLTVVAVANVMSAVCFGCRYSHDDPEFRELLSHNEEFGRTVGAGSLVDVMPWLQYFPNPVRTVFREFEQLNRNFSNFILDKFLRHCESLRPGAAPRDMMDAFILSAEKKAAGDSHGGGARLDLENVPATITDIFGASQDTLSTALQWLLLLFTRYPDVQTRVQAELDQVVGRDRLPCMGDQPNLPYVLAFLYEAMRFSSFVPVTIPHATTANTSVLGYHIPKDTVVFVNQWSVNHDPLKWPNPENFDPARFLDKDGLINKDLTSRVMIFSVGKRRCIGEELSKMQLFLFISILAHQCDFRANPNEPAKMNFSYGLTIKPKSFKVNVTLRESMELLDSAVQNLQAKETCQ
The series can be described thus: Drug level in presence of CYP1B1 (unknown origin) expressed in bactosomes treated with 1-amino-3-methyl-1-oxobut-3-en-2-yl 3-methoxy-5-methyl-1-naphthoate measured for 180 mins by LC/MS/MS analysis. Format: ADME. Conditions: recombinant enzyme, 3 h.

For series [5], the target named is Cytochrome P450 3A4 (Homo sapiens, UniProt P08684). Briefly: Drug level in presence of CYP3A4 (unknown origin) expressed in bactosomes treated with 1-amino-3-methyl-1-oxobut-3-en-2-yl 3-methoxy-5-methyl-1-naphthoate measured for 180 mins by LC/MS/MS analysis. It is filed as ADME. Particulars: recombinant enzyme, 3 h.
Cytochrome P450 3A4, sequence (P08684 whole entry): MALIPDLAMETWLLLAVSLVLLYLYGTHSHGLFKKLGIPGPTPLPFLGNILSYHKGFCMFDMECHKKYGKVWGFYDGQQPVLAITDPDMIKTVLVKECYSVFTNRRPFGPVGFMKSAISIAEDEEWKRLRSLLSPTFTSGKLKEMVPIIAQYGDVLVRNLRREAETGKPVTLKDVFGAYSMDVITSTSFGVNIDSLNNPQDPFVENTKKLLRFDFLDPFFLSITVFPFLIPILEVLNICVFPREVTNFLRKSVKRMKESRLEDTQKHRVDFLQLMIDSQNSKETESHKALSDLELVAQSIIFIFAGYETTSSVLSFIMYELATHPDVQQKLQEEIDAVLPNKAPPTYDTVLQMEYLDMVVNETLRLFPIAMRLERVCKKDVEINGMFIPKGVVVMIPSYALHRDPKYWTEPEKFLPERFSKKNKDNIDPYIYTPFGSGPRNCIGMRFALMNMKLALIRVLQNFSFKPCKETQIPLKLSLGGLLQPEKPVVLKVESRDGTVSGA

For `COc1ccc2c(OC)ccc(C(=O)O[C@H](C(N)=O)C3(C)CO3)c2c1` (stereo partly drawn), the results for the IC50 in series [1] and in series [2] were 6 µM and 3 µM, respectively.
Consider `COc1cc(C(=O)O[C@@H](C(N)=O)C2(C)CO2)c2cccc(C)c2c1` (stereo partly drawn), for which the IC50 (in general, the concentration that inhibits the measured activity by half) in series [1] came to 5.7 µM; in series [2], 6 µM. In addition, the Drug metabolism result in series [3] and in series [4] was “metabolite_detected” throughout.
`COc1cc(C(=O)O[C@H](C(N)=O)C2(C)CO2)c2cccc(C)c2c1` (stereo partly drawn): the 50% inhibitory concentration (IC50) in series [1] came to 2.8 µM; in series [2] it was 3.2 µM. The Drug metabolism entry in series [5] and in series [4] was “metabolite_detected” in each case.
As for `CC1([C@H](OC(=O)c2ccc(F)c3ccccc23)C(N)=O)CO1` (stereo partly drawn), the results for the IC50 in series [1] and in series [2] were 7 µM and 3 µM, respectively.
The corresponding values for `COc1ccc2c(OC)ccc(C(=O)O[C@@H](C(N)=O)C3(C)CO3)c2c1` (stereo partly drawn) are 3 µM and 9 µM.
The corresponding values for `CC1([C@H](OC(=O)c2cccc3ccccc23)C(N)=O)CO1` (stereo partly drawn) are 10 µM and 5 µM.
Regarding `Cc1ccc(C(=O)O[C@H](C(N)=O)C2(C)CO2)c2ccccc12` (stereo partly drawn), the IC50 came to 6 µM in series [1] and 3 µM in series [2].
